Assay results: patent US7432302B2, “Composition containing polyamine transport inhibitor and use thereof” (MediQuest Therapeutics, Inc., priority 2001, dated 2008)
pEC50, pIC50, pKi: −log10 of the molar value. Where two headings read alike, the source gives them in different places.

Columns and labels:
[1] = tested on: cell growth in the presence of DFMO; assay: Growth inhibition assay in combination with DFMO; type: cell-based; settings: 144 h; note: 0.5 µM SPD
Description: Medias were obtained from Mediatech, Inc. (Hemdon, Va.) and serums from Gibco BRL (Gaithersburg, Md.). 50 U/ml penicillin, 50 μg/ml streptomycin and 2 mM L-glutamine (all from Bio Whittaker, Walkersville, Md.) were included in all cultures. […] When cells were cultured with polyamines or ORI compounds, 1 mM aminoguanidine (AG; Sigma) was included to inhibit serum amine oxidase activity.

hair regrowth = assay: Animal hair growth inhibition assay; type: in vivo, mice
[2] = tested on: cell growth when given with DFMO; assay: EC50 determined as disclosed in Weeks et al. (cell growth when given with DFMO); type: cell-based; settings: determined as in Weeks et al. Exp Cell Res. 2000
[3] = tested on: epidermal ornithine decarboxylase activity; settings: topical application of 20 μmole 2 hr after the TPA treatment; cited from earlier work
cultured hair follicles = settings: 50 μM polyamine added to MGBG (10 mM) treated cultured hair follicles; cited from earlier work
cultured follicles = settings: cited from earlier work
[4] = rats, 10-day treatment with drug in drinking water; cited from earlier work
[5] = tested on: levels of spermidine or spermine in rat prostate; settings: oral, 0.02% or 0.1% in drinking water; cited from earlier work
spermidine synthase = target: T1, spermidine synthase (Homo sapiens, UniProt P19623); settings: cited from earlier work; for pIC50: read-out: IC50
T1 sequence (P19623 1-302): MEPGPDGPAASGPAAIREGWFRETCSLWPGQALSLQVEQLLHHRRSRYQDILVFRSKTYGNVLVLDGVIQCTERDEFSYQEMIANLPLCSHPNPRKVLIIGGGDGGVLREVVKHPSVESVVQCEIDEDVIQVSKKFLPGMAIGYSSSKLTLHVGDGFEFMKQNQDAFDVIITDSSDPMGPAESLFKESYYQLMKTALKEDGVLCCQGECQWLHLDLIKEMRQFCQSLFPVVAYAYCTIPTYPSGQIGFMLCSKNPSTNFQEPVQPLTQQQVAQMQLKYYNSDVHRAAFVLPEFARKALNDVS

L1210 leukemia cells = settings: cited from earlier work
fiber growth = settings: sheep treated systemically; cited from earlier work
[6] = target: T2, ornithine decarboxylase (ODC) (Homo sapiens, UniProt P11926); settings: reversible / cofactor-interaction ODC inhibitors, literature; cited from earlier work
T2 sequence (P11926 1-461): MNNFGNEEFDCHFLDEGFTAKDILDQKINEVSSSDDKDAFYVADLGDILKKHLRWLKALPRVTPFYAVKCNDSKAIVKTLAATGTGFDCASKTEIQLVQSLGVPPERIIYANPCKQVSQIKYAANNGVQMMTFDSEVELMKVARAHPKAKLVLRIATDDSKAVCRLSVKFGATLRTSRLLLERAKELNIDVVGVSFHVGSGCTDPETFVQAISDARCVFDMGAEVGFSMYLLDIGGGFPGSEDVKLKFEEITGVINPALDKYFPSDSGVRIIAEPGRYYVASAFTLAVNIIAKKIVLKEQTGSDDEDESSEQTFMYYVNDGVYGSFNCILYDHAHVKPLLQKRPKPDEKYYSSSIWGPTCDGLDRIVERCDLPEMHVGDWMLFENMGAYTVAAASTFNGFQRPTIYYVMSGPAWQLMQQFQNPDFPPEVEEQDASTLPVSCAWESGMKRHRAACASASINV

[7] = no additional biosynthesis inhibitor (None, or antizyme inducer; agmatine 2%), once a day for 18 days
[8] = compound with DFMO at 2%, 70% ethanol, pH 7.0, applied once a day for 18 days
[9] = mutant L1210 cells with greatly reduced polyamine transport activity

## CCCCCCCCCCCCCCCC(=O)NCCCC[C@@H](N)C(=O)NCCCNCCCCNCCCN [IB4]
[1]; read-out: Ave EC50 value
  pEC50: 7.08

## N=C(N)NCCCCN [Agmatine, reference compound]
Hair regrowth; [7]
  % HGI: 30%

## CCCCCCNCCCC[C@@H](N)C(=O)NCCCNCCCCNCCCN [IVB5]
[1]; read-out: Ave EC50 Value
  pEC50: 6.15

## NCCCNCCCCNCCCNC(=O)[C@@H](N)CCCCNCC1CCCCC1 [MQT 3]
[2]
  pEC50: 6.11
Hair regrowth; compound with BHT 0.5%, 70% ethanol, pH 7.0, once a day for 18 days
  % HGI: 68%
Hair regrowth; [8]
  % HGI: 93%

## CCCCCCCNCCCC[C@@H](N)C(=O)NCCCNCCCCNCCCN [IVB6]
[1]; read-out: Ave EC50 Value
  pEC50: 6.05

## CC(C)[C@@H]1CC[C@@H](C)C[C@H]1OCC(=O)NCCCC[C@@H](N)C(=O)NCCCNCCCCNCCCN [IB38]
[1]; read-out: Ave EC50 value
  pEC50: 4.89

## NCCCNCCCCNCCCN [spermine]
[3]
  inhibition of the induction of ODC activity: 90%
Cultured hair follicles
  recovery of DNA synthesis: did not overcome the MGBG-mediated inhibition

## CC(C)(C)CC(=O)NCCCC[C@@H](N)C(=O)NCCCNCCCCNCCCN [IB36]
[1]; read-out: Ave EC50 value
  pEC50: 4.57

## CC(/C=N/NC(=N)N)=N\NC(=N)N [MGBG, methylglycoxal bis(guanylhydrazone)]
Cultured follicles
  ED50, inhibition of the growth of cultured follicles: ~5000 nM

## NCCCNCCCCNCCCNC(=O)[C@H](N)CCCCNC(=O)CC1CC2CCC1C2 (some centres unmarked) [IB37]
[1]; read-out: Ave EC50 value
  pEC50: 4.39

## CCCCCCCCC(=O)NCCCC[C@@H](N)C(=O)NCCCNCCCCNCCCN [IB6]
[1]; read-out: Ave EC50 value
  pEC50: 5.66

## NCCCNC1CCCCC1 [APCHA, N-(3-aminopropyl)cyclohexylamine]
[4]
  LD50: > 500 mg/kg
[5]
  levels of spermidine or spermine in rat prostate: significantly reduced levels

## CC(C)(C)C(=O)NCCCC[C@@H](N)C(=O)NCCCNCCCCNCCCN [IB34]
[1]; read-out: Ave EC50 value
  pEC50: 5.07

## NCCCCNCCCN [spermidine]
[3]
  inhibition of the induction of ODC activity: 90%
Cultured hair follicles
  recovery of DNA synthesis: Complete recovery of DNA synthesis

## NCCCCN [putrescine]
[3]
  inhibition of the induction of ODC activity: 50%

## NCCCNCCCCNCCCNC(=O)[C@H](N)CCCCNCC1CC2C=CC1C2 (some centres unmarked) [IVB25]
[1]; read-out: Ave EC50 Value
  pEC50: 6.05

## CC(C)CCNCCCC[C@@H](N)C(=O)NCCCNCCCCNCCCN [IVB21]
[1]; read-out: Ave EC50 Value
  pEC50: 5.88

## CCCCCCCNCCCC[C@H](N)C(=O)NCCCNCCCCNCCCN [MQT 6]
[2]
  pEC50: 6.42
Hair regrowth; [8]
  % HGI: 79%

## CCCCCCCCCCCCCCCCCC(=O)NCCCC[C@@H](N)C(=O)NCCCNCCCCNCCCN [IB2]
[1]; read-out: Ave EC50 value
  pEC50: 7.08

## NC1CC2CCC1C2 (stereo not drawn) [exo-2-aminonorbornane]
Spermidine synthase
  pIC50: 5.26

## NCCCNCCCCNCCCNC(=O)[C@H](N)CCCCNC(=O)C12CC3CC(CC(C3)C1)C2 [IB30]
[1]; read-out: Ave EC50 value
  pEC50: 5.70

## NCCC[C@](N)(C(=O)O)C(F)F [DFMO, α-difluoromethylornithine]
L1210 leukemia cells; [9]
  increase in median survival time: 87%
  mice cured: 13 of 40
L1210 leukemia cells; parental L1210 cell line
  increase in median survival time: 22%
Cultured follicles; in culture media: DFMO 500 μM, N-butyl-1,3-diaminopropane 50 μM
  effect on the growth of cultured follicles: no effect
Fiber growth
  fiber diameter increase: 14%
  fiber growth decline: 10%
Hair regrowth; biosynthesis inhibitor alone, compound None (DFMO at 2%; Vaniqua 13.9% DFMO)
  % HGI: 28%

## NCCCNCCCCNCCCNC(=O)[C@H](N)CCCCNC(=O)c1ccco1 [IB25]
[1]; read-out: Ave EC50 value
  pEC50: 5.00

## NCCCON [1-Aminooxy-3-aminopropane]
[6]
  pKi: 8.49

## CCCCCC(=O)NCCCC[C@@H](N)C(=O)NCCCNCCCCNCCCN [IB9]
[1]; read-out: Ave EC50 value
  pEC50: 4.92

## CCCCNCCCC[C@@H](N)C(=O)NCCCNCCCCNCCCN [IVB3]
[1]; read-out: Ave EC50 Value
  pEC50: 5.66

## NCCCNCCCCNCCCNC(=O)[C@H](N)CCCCNCc1ccc(-c2ccccc2)cc1 [IVB33]
[1]; read-out: Ave EC50 Value
  pEC50: 5.86

## NCCCNCCCCNCCCNC(=O)[C@H](N)CCCCNC(=O)c1ccccc1 [IB24]
[1]; read-out: Ave EC50 value
  pEC50: 4.52

## C=CCCCN [5-amino-1-pentene]
Spermidine synthase
  IC50: respectable activity

## NCCCCCCNCCCCCNCCN [MQT 8]
Hair regrowth; [7]
  % HGI: 53%

## CCCCCCCCCCCCCCCC(=O)NCCCC[C@H](N)C(=O)NCCCNCCCCNCCCN [MQT 2]
[2]
  pEC50: 7.36
Hair regrowth; [8]
  % HGI: 97%

## CC(C)=CCC[C@H](C)CCNCCCC[C@@H](N)C(=O)NCCCNCCCCNCCCN [IVB28]
[1]; read-out: Ave EC50 Value
  pEC50: 4.89

## CCCCCCCC(=O)NCCCC[C@H](N)C(=O)NCCCNCCCCNCCCN [MQT 5]
[2]
  pEC50: 5.66
Hair regrowth; [8]
  % HGI: 47%

## CC(C)(C)CCNCCCC[C@@H](N)C(=O)NCCCNCCCCNCCCN [IVB22]
[1]; read-out: Ave EC50 Value
  pEC50: 6.17

## NCCCNCCCCNCCCNC(=O)[C@H](N)CCCCNC(=O)C(c1ccccc1)c1ccccc1 [IB29]
[1]; read-out: Ave EC50 value
  pEC50: 5.68

## CC(C)CNCCCC[C@@H](N)C(=O)NCCCNCCCCNCCCN [IVB23]
[1]; read-out: Ave EC50 Value
  pEC50: 5.75

## CC(C)CC(C)NCCCCC(N)C(=O)NCCCNCCCCNCCCN (single isomer, unassigned) [VA21]
[1]; read-out: Ave EC50 Value
  pEC50: 6.19
[1]; read-out: Ave EC50 value
  pEC50: 6.19

## CCCCCCC(=O)NCCCC[C@@H](N)C(=O)NCCCNCCCCNCCCN [IB8]
[1]; read-out: Ave EC50 value
  pEC50: 5.46

## NCCCCCCNCCCCCCNCc1ccc(CNCCCN)cc1 [MQT 7]
Hair regrowth; [7]
  % HGI: 94%

## CC(N)CCON (centres unmarked) [1-Aminooxy-3-aminobutane]
[6]
  pKi: 8.55

## NC1CCC(N)(C(=O)O)CC1 (stereo not drawn) [trans-1,4-diaminocyclohexane-1-carboxylic acid]
[6]
  pKi: 4.15

## CCCCN [Compound 1-butylamine, 1-butylamine]
Spermidine synthase
  pKi: 6.28
  pIC50: 5.42

## CCCCCCCC(=O)NCCCC[C@@H](N)C(=O)NCCCNCCCCNCCCN [IB7]
[1]; read-out: Ave EC50 value
  pEC50: 4.89

## CC(C)(C)CNCCCC[C@@H](N)C(=O)NCCCNCCCCNCCCN [IVB24]
[1]; read-out: Ave EC50 Value
  pEC50: 5.88

## NC/C=C/C(N)C(=O)O (stereo not drawn) [trans-3-dehydroornithine]
[6]
  pKi: 5.36

## NC1CCCCC1 [cyclohexylamine]
Spermidine synthase
  pIC50: 5.09

## NCCCNCCCCNCCCNC(=O)[C@H](N)CCCCNC(=O)c1ccc(-c2ccccc2)cc1 [IB26]
[1]; read-out: Ave EC50 value
  pEC50: 5.96

## CC(C)C(=O)NCCCC[C@@H](N)C(=O)NCCCNCCCCNCCCN [IB33]
[1]; read-out: Ave EC50 value
  pEC50: 5.08

## C[C@](N)(CCCN)C(=O)O [α-methylornithine]
[6]
  pKi: 4.40

## C[C@H]1CC[C@H](N)CC1 [trans-4-methylcyclohexylamine]
Spermidine synthase
  pIC50: 5.77

## CCCCCN [1-pentylamine]
Spermidine synthase
  pIC50: 5.44

## CCCC(CCC)NCCCC[C@H](N)C(=O)NCCCNCCCCNCCCN [VA26]
[1]; read-out: Ave EC50 Value
  pEC50: 5.38

## NCCCNCCCCNCCCNC(=O)[C@H](N)CCCCNCC1CCCCC1 [IVB27]
[1]; read-out: Ave EC50 Value
  pEC50: 6.21

## CC(C)[C@@H]1CC[C@@H](C)CC1NCCCC[C@@H](N)C(=O)NCCCNCCCCNCCCN (some centres unmarked) [VB28]
[1]; read-out: Ave EC50 Value
  pEC50: 5.84

## NCCCCCCCN [1,7-diaminoheptane]
[3]
  inhibition of the induction of ODC activity: 90%

## CC(C)(C)CCNCCCC[C@H](N)C(=O)NCCCNCCCCNCCCN [MQT 4]
[2]
  pEC50: 5.80
Hair regrowth; [8]
  % HGI: 63%
Hair regrowth; [7]
  % HGI: 66%

## NCCCC(NN)C(=O)O (stereo not drawn) [α-Hydrazinoornithine]
[6]
  pKi: 6.30

## CC1CCC(N)CC1 (centres unmarked) [Compound 4MCHA, 4-methylcyclohexylamine]
[4]
  LD50: more than 250 mg/kg
[5]
  levels of spermidine or spermine in rat prostate: significantly reduced levels
